The source made the active and inactive calls.
Tests used:
[1] = target: T1, Neuropeptide Y receptor type 1 (Homo sapiens, UniProt P25929); assay: Fluorescence-based counterscreen for potentiators or agonists of NPY-Y2: cell-based high-throughput dose response assay for potentiators or agonists of NPY-Y1.; assay type: functional
T1 sequence (P25929 whole entry): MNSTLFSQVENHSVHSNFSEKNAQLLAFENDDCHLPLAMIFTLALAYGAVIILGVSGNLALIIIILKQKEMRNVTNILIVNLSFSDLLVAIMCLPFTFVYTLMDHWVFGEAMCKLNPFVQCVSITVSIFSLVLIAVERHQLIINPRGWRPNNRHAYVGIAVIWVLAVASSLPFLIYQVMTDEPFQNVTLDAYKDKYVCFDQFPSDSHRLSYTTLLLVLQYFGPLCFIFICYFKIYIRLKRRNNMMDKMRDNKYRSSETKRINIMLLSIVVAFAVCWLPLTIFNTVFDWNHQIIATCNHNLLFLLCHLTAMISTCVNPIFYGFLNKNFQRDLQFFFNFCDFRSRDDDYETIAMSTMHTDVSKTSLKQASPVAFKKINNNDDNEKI

HEK293 = assay: Fluorescence-based counterscreen for potentiators or agonists of NPY-Y2: cell-based high-throughput dose response assay to identify inhibitors of cyclic nucleotide gated ion channel (CNGC) activity. In this assay, the parental HEK293 cell line transfected with a cyclic-nucleotide gated ion channel (CNGC)-based cAMP sensor is used to measure inhibition of isoproterenol-induced CNGC activity by test compound.; assay type: functional; settings: Homo sapiens
[2] = system: Streptococcus sp. 'group A'; assay: Streptococcus pyogenes SK(-)GAS viability under kanamycin – luminescence, BacTiterGlo, confirmation, counter-screen for streptokinase expression inhibitor project, dose response (AID 1900); assay type: functional, organism-based
[3] = target: T2, Neuropeptide Y receptor type 2 (Homo sapiens, UniProt P49146); assay: Fluorescence-based cell-based high-throughput dose response assay for agonists of NPY-Y2. [Related pubchem assays: 1703 (Screening assay (CNGC inhibitors).), 1359 (Screening assay (NPY-Y2 potentiators or agonists).), 1304 (Screening assay (NPY-Y1 potentiators or agonists).), 1710 (Screening assay (NPY-Y2 agonists).), 1791 (Summary AID.)]; assay type: functional
T2 sequence (P49146 whole entry): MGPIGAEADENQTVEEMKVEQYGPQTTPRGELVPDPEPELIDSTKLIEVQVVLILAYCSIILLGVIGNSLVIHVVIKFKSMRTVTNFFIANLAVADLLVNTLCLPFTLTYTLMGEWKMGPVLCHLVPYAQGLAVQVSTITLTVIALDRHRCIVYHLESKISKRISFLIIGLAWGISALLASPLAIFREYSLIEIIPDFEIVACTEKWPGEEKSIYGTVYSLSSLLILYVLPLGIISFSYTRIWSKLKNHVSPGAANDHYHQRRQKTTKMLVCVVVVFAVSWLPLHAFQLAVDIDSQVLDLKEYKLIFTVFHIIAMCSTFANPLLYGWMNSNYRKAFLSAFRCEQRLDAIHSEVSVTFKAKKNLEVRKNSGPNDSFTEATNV

Streptokinase A = target: T3, Streptokinase A (Streptococcus pyogenes serotype M1, UniProt P10520); assay: viability-normalized secreted streptokinase activity reduction – plasminogen activation absorbance, OD405, dose response (AID 1914); assay type: functional, Streptococcus pyogenes M1 GAS;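 note: secreted streptokinase activity via plasminogen activation per viability signal from cell pellet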
T3 sequence (P10520 whole entry): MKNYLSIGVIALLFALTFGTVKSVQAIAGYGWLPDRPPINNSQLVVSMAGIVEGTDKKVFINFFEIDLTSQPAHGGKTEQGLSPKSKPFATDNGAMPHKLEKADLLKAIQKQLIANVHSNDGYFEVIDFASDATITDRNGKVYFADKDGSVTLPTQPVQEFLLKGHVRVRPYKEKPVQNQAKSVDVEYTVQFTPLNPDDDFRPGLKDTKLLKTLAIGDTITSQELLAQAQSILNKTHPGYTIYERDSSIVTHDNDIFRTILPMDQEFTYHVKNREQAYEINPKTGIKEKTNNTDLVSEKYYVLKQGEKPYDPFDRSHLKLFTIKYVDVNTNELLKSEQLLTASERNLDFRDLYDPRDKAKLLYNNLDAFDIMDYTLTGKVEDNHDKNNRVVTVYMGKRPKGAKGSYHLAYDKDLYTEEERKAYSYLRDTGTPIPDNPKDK

[4] = target: G-protein coupled receptor 55 (Homo sapiens, UniProt Q9Y2T6); assay: inhibition of LPI-stimulated GPR55 beta-arrestin translocation – imaging, U2OS, beta-arrestin-GFP, LPI agonist, primary screen (AID 2013); assay type: functional;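 note: antagonist potency measured as reduced agonist-driven arrestin aggregation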
G-protein coupled receptor 55, sequence (Q9Y2T6 whole entry): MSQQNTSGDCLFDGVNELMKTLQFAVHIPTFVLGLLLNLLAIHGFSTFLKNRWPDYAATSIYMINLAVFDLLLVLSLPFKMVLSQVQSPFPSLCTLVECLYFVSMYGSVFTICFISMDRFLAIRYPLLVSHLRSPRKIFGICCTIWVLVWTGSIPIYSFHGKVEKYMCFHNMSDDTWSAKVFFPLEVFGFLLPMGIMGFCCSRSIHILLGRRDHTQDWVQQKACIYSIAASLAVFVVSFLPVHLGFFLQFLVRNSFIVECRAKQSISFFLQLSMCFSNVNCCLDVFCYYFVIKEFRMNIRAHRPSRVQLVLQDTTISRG

[5] = target: T2, Neuropeptide Y receptor type 2; assay: Fluorescence-based cell-based high-throughput dose response assay for potentiators or agonists of NPY-Y2. [Related pubchem assays: 1539 (Screening assay (NPY-Y2 potentiators or agonists).), 1703 (Screening assay (CNGC inhibitors).), 1359 (Screening assay (NPY-Y2 potentiators or agonists).), 1304 (Screening assay (NPY-Y1 potentiators or agonists).) …; assay type: functional
[6] = target: T1, Neuropeptide Y receptor type 1; assay: Fluorescence-based counterscreen for agonists of NPY-Y2: cell-based high-throughput dose response assay for agonists of NPY-Y1.; assay type: functional
Streptococcus = assay: GAS UMAA2166 growth inhibition – luminescence, BacTiterGlo, counter-screen for streptokinase expression inhibitor project, dose response (AID 1915); assay type: functional, organism-based;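 note: potency for reduction of bacterial viability or growth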
[7] = viability loss in HeLa cells – cytotoxicity control for MgcRacGAP inhibitor project, dose response (AID 624300); assay type: functional
[8] = target: T4, Rac GTPase-activating protein 1 (Homo sapiens, UniProt Q9H0H5); assay: blockers of MgcRacGAP-driven Rac1 GTP hydrolysis – biochemical, ADP Hunter fluorescence, primary and confirmatory, confirmation (AID 624330); assay type: functional
T4 sequence (Q9H0H5 whole entry): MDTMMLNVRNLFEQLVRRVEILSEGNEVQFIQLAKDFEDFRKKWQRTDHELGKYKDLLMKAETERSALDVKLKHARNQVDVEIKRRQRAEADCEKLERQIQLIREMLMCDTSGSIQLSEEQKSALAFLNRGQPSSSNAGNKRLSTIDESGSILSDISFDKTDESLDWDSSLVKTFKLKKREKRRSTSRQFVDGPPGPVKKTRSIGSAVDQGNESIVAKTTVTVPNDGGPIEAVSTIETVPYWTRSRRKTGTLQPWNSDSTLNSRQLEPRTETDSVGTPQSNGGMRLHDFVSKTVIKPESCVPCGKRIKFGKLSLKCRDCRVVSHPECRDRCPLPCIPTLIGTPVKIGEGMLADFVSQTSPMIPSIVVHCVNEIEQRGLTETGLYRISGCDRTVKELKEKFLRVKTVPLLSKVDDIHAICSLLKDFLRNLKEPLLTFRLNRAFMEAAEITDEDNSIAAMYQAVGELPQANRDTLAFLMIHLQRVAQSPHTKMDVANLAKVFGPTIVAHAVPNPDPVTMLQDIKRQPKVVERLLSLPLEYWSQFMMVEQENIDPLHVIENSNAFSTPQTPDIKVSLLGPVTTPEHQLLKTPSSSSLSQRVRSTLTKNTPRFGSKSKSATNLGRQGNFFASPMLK

NADPH oxidase 1 = target: T5, NADPH oxidase 1 (Homo sapiens, UniProt Q9Y5S8); assay: Luminescence-based cell-based dose response assay to identify inhibitors of NADPH oxidase 1 (NOX1).; assay type: functional
T5 sequence (Q9Y5S8 whole entry): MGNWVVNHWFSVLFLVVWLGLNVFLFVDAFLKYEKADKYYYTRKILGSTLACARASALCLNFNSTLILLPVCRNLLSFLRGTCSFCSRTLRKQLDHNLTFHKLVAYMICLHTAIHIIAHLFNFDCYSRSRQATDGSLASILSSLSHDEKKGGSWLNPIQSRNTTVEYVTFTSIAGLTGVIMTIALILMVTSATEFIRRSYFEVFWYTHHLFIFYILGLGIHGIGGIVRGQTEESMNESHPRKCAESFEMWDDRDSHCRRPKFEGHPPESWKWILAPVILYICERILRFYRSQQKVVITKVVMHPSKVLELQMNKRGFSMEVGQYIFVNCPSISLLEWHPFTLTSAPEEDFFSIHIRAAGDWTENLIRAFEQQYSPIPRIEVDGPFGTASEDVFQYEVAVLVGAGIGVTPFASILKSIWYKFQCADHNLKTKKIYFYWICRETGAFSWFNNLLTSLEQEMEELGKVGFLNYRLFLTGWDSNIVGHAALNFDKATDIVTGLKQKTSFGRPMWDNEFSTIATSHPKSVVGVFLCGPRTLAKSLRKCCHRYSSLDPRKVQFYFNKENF

[9] = target: Induced myeloid leukemia cell differentiation protein Mcl-1 (Homo sapiens, UniProt Q07820); assay type: functional
Induced myeloid leukemia cell differentiation protein Mcl-1, sequence (Q07820 whole entry): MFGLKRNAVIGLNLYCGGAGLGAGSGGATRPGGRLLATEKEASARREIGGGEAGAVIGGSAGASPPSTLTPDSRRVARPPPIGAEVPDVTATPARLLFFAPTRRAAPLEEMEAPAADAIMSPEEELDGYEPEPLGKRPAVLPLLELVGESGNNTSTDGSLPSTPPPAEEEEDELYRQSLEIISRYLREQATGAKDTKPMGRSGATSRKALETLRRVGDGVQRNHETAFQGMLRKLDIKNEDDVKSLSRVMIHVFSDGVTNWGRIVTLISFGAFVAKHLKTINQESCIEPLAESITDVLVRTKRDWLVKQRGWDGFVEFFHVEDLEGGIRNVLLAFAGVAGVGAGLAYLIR

[10] = A High Throughput Confirmatory Assay used to Identify Novel Compounds that Inhibit Mycobacterium Tuberculosis in the absence of Glycerol.; assay type: functional

## CCOC(=O)c1nc(Nc2ccc(Nc3ccccc3)cc2)c2ccccc2n1
[1]
  EC50: 13.2 µM (not active)
HEK293
  EC50: > 11.8 µM (not active)
[2]
  EC50: 10.2 µM (active)
[3]
  EC50: 10.1 µM (not active)
Streptokinase A
  EC50: > 150 µM (not active)
[4]
  IC50: 2.48 µM (active)
[5]
  EC50: 13.2 µM (not active)
[6]
  EC50: 10.9 µM (not active)
Streptococcus
  EC50: 12.8 µM (active)
[7]
  CC50: 44.8 µM (active)
[8]
  IC50: 105 µM (active)

## CCN(CC)c1ccc(NC(=O)Nc2cccc(C(C)=O)c2)cc1
NADPH oxidase 1
  IC50: 0.083 µM (active)
[9]
  IC50: 3.13 µM (not active)

## COC(=O)[C@@H](NC(=O)O[C@@H]1C(=O)c2ccc(OC)cc2O[C@H]1c1cccc(C(F)(F)F)c1)C(C)C
[10]
  IC50: > 100 µM (active)
